Molecular target: T1, c-kit (Homo sapiens, UniProt P10721)
T1 construct: MO7e (human megakaryocytic leukemia cell line) which had been arrested for 20 hr; endogenous in cells; host or cells: MO7e human megakaryocytic leukemia cell line
Assay: Inhibitory activity against c-kit autophosphorylation (MO7e cells, h-SCF)
Type: cell-based
Conditions: MO7e cells, 50 ng/ml h-SCF; read-out: c-kit IC50
How it was run: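 Phospho-c-kit ELISA: plate-bound PY-20 anti-phosphotyrosine captures lysate, anti-c-kit plus peroxidase-labelled secondary antibody detect, read at 450 nm. Lysates come from 20 hr-arrested MO7e cells given compound for 1 hr before a 5 min 50 ng/ml h-SCF stimulus.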

T1 sequence (P10721 26-976): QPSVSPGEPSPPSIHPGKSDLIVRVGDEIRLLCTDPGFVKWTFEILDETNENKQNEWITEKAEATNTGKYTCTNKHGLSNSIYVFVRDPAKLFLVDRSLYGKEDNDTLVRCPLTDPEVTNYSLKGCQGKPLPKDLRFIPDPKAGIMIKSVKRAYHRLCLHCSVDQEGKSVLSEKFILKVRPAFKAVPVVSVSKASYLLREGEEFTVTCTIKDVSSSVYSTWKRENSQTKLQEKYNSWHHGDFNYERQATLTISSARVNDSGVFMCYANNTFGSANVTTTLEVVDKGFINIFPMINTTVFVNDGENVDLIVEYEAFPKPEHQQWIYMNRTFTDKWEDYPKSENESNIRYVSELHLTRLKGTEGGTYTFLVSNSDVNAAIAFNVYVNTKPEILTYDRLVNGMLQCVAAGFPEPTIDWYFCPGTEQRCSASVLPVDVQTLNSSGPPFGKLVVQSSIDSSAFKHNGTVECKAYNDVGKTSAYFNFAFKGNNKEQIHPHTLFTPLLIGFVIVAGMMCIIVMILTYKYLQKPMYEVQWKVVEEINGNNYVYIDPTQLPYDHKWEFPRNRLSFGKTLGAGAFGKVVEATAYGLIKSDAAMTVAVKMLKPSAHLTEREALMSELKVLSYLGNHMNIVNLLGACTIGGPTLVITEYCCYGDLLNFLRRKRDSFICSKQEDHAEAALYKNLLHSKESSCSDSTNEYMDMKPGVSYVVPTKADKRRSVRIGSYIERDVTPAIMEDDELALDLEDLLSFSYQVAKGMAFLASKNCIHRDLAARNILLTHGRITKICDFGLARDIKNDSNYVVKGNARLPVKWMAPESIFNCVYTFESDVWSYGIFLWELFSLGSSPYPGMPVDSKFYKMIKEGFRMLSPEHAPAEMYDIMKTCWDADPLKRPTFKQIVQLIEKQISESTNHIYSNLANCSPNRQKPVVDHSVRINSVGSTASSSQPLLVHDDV

Compound	IC50
COc1cc2nccc(Oc3ccc(OCC(=O)Nc4cccc(C)c4)cc3)c2cc1OC [Example 784, N1-(3-Methylphenyl)-2-{4-[(6,7-dimethoxy-4-quinolyl)oxy]phenoxy}acetamide]	80 nM

Same assay, conditions: MO7e cells, h-SCF 50 ng/ml; read-out: c-kit IC50

Compound	IC50
C=CCCCOC(=O)Nc1cc(C)c(Oc2ccnc3cc(OC)c(OC)cc23)cc1C [Example 267, 4-Pentenyl N-{4-[(6,7-dimethoxy-4-quinolyl)oxy]-2,5-dimethylphenyl}carbamate]	35 nM
4-Methylbenzyl {2-chloro-4-[(6,7-dimethoxy-4-quinazolinyl)oxy]anilino}methanethioate [Example 111]	750 nM

Same assay, conditions: MO7e cells, h-SCF stimulation; read-out: c-kit IC50

Compound	IC50
COc1cc2nccc(Oc3ccc(NC(=S)NC(=O)c4ccccc4Cl)cc3)c2cc1OC [Example 898, N-(2-Chlorobenzoyl)-N′-{4-[(6,7-dimethoxy-4-quinolyl)oxy]phenyl}thiourea]	637 nM
COc1cc2nccc(Oc3ccc(NCCOc4ccccc4Cl)cc3C)c2cc1OC [Example 877, N-[2-(2-Chlorophenoxy)ethyl]-N-{4-[(6,7-dimethoxy-4-quinolyl)oxy]-3-methylphenyl}amine]	219 nM
COc1cc2nccc(Oc3ccc(NCCOc4ccccc4)cc3C)c2cc1OC [Example 875, N-{4-[(6,7-Dimethoxy-4-quinolyl)oxy]-3-methylphenyl}-N-(2-phenoxyethyl)amine]	115 nM
COc1cc2nccc(Oc3ccc(NC(=S)NC(=O)c4cccc(F)c4)cc3F)c2cc1OC [Example 942, N-{4-[(6,7-Dimethoxy-4-quinolyl)oxy]-3-fluorophenyl}-N′-(3-fluorobenzoyl)thiourea]	335 nM
COc1cc2nccc(Oc3ccc(NC(=S)NC(=O)c4cccc(Br)c4)cc3)c2cc1OC [Example 935, N-(3-Bromobenzoyl)-N′-{4-[(6,7-dimethoxy-4-quinolyl)oxy]phenyl}thiourea]	166 nM

Further lines, results first:

IC50	Compound
181 nM	COc1cc2nccc(Oc3ccc(NC(=S)NC(=O)c4ccc(F)cc4F)cc3)c2cc1OC [Example 1006, N-(2,4-Difluorobenzoyl)-N′-{4-[(6,7-dimethoxy-4-quinolyl)oxy]phenyl}thiourea]
189 nM	COc1cc2nccc(Oc3ccc(NC(=S)NC(=O)CCSC)cc3F)c2cc1OC [Example 1069, N-{4-[(6,7-Dimethoxy-4-quinolyl)oxy]-3-fluorophenyl}-N′-[3-(methylsulfanyl)propanoyl]thiourea]
701 nM	COc1ccc(C(=O)NC(=S)Nc2ccc(Oc3ccnc4cc(OC)c(OC)cc34)cc2)cc1 [Example 963, N-{4-[(6,7-Dimethoxy-4-quinolyl)oxy]phenyl}-N′-(4-methoxybenzoyl)thiourea]

Same assay, conditions: Mo7e, figure in parentheses in −( ); at 1000 nM

Compound	inhibition at 1 µM
COc1cc2nccc(Oc3ccc(NC(=S)NC(=O)c4ccccc4)c(F)c3)c2cc1OC [Example 903, N-Benzoyl-N′-{4-[(6,7-dimethoxy-4-quinolyl)oxy]-2-fluorophenyl}thiourea]	34%
COc1cc2nccc(Oc3ccc(NC(=S)NC(=O)c4ccccc4C(F)(F)F)c(F)c3)c2cc1OC [Example 910, N-{4-[(6,7-Dimethoxy-4-quinolyl)oxy]-2-fluorophenyl}-N′-[2-(trifluoromethyl)benzoyl]thiourea]	38%
COc1cc2nccc(Oc3ccc(NC(=S)NC(=O)c4ccccc4C)cc3Cl)c2cc1OC [Example 919, N-{3-Chloro-4-[(6,7-dimethoxy-4-quinolyl)oxy]phenyl}-N′-(2-methylbenzoyl)thiourea]	11%

More lines, now with the values ahead:

inhibition at 1 µM	Compound
28%	COc1cc2nccc(Oc3ccc(NC(=S)NC(=O)c4ccc(Cl)cc4)c(C)c3)c2cc1OC [Example 1089, N-(4-Chlorobenzoyl)-N′-{4-[(6,7-dimethoxy-4-quinolyl)oxy]-2-methylphenyl}thiourea]
7%	CCCCCCCCCCCCCC(=O)NC(=S)Nc1ccc(Oc2ccnc3cc(OC)c(OC)cc23)cc1F [Example 1076, N-{4-[(6,7-Dimethoxy-4-quinolyl)oxy]-2-fluorophenyl}-N′-tetradecanoylthiourea]
